Where a name gives a salt, the structure may show the parent alone.
Test system: dogs with advanced heart failure
Test: Single-dose 6 hours infusion study, hemodynamic, ventriculographic, echocardiographic, MVO2 and P-V loop measures
Assay type: in vivo, dog
Description: Studies were performed in purpose-bred, healthy and conditioned mongrel dogs weighing between 20 and 30 kg. The study was approved by Henry Ford Health System Institutional Animal Care and Use Committee and conformed to the National Institute of Health “Guide and Care for Use of Laboratory Animals” and the “Position of the American Heart Association on Research Animal Use” (Position of the American Heart Association on Research Animal Use. Circulation 1985; 71; 49A-50A).
Chronic LV dysfunction and failure was produced by multiple sequential intracoronary embolizations with polystyrene Latex; coronary microembolizations were performed during cardiac catheterization under general anesthesia and sterile conditions (Sabbah H N, et al. Am J Physiol (1991) 260:H1379-84; Sabbah H N, et al. Circulation (1994) 89:2852-9; Sabbah H N, et al. Am J Cardiol 99:41 A-46A, (2007)). Anesthesia was induced using a combination of intravenous injections of oxymorphone hydrochloride (0.22 mg/kg) and diazepam (0.2-0.6 mg/kg). Plane of anesthesia was maintained throughout the study using 1% to 2% isoflurane. Left and right heart catheterizations were performed via a femoral arteriotomy and venotomy. Coronary microembolizations were discontinued when LV ejection fraction, determined angiographically, was about 25%. A period of 2 weeks was allowed after the last microembolization to ensure that infarctions produced by the last microembolizations have completely healed and heart failure was established before the study is undertaken.
Six heart failure dogs described in Example 1 were used. Studies using active drug and placebo were performed in each dog in random order a minimum of one week apart. After baseline hemodynamic, angiographic and echocardiographic measurements, GP-531 tartrate or placebo was administered as a continuous constant intravenous infusion for 6 hours. The dose of GP-531 tartrate was 10 μg/kg/min. Complete hemodynamic, angiographic and echocardiographic measurements were made during baseline, and at 1, 2, 3, 4, 5 and 6 hours after initiating drug infusion. In addition, myocardial oxygen consumption (MVO2) was measured at baseline and 4 and 6 hours after initiating drug or saline infusion. LV pressure-volume relationships (P-V Loops) were also measured at baseline and at 6 hours after initiating drug or saline infusion to assess load independent contractility and relaxation. Venous blood samples were obtained at baseline and hourly thereafter. Blood samples (at least […]) were centrifuged at 3000 rpm for 10 minutes and plasma withdrawn and placed in cryostorage tubes and stored upright at −20° C. until needed. Venous blood samples were used to evaluate plasma levels of troponin-I and plasma levels of n-terminal pro-brain natriuretic peptide (NT-proBNP).
Study Primary End-Points were: (1) change in LV ejection fraction determined from ventriculography; (2) change in LV end-systolic and end-diastolic volume determined from ventriculography; (3) change in MVO2; and (4) change in the slope of the LV end-systolic and end-diastolic P-V relationship.
All hemodynamic measurements were made during left and right heart catheterizations in anesthetized dogs at each specified study time point. Heart rate (HR), mean aortic pressure (mAoP), LV end-diastolic pressure (LVEDP), stroke volume (SV), cardiac output (CO) and systemic vascular resistance (SVR) were measured at each study time point. Left ventriculograms were performed during cardiac catheterization after completion of the hemodynamic measurements. Left ventriculograms were obtained with the dog placed on its right side and digitally recorded during the injection of 20 ml of contrast material (RENO-M-60 Squibb, Princeton, N.J.). Correction for image magnification was made using a radiopaque grid placed at the level of the LV. […]

[1] = HF dogs n=6, iv 10 μg/kg/min constant infusion, 1 h
[2] = HF dogs n=6, iv 10 μg/kg/min constant infusion, 2 h
[3] = HF dogs n=6, iv 10 μg/kg/min constant infusion, 3 h
[4] = HF dogs n=6, iv 10 μg/kg/min constant infusion, 4 h
[5] = HF dogs n=6, iv 10 μg/kg/min constant infusion, 5 h
[6] = HF dogs n=6, iv 10 μg/kg/min constant infusion, 6 h
[7] = HF dogs n=6, iv 10 μg/kg/min for 6 h
[8] = HF dogs n=6, iv 10 μg/kg/min for 6 h, time-dependent
[9] = HF dogs n=6, iv 10 μg/kg/min for 6 h, vs baseline

NC(=O)c1ncn(C2OC(CNCc3ccccc3)C(O)C2O)c1N (centres unmarked) [GP-531 tartrate]
Cardiac output (CO) [1]: 1.42 ± 0.08 L/min
Deceleration time of early mitral inflow velocity (DCT) [1]: 100 ± 5 ms
Ei/Ai (ratio of mitral inflow time-velocity integrals) [1]: 1.78 ± 0.23
Heart rate (HR) [1]: 78 ± 1 beats/min
LV end-diastolic circumferential wall stress (EDWS) [1]: 53 ± 7 gm/cm^2
LV end-diastolic pressure (LVEDP) [1]: 12 ± 1.1 mmHg
LV end-diastolic volume (EDV) [1]: 64 ± 2 mL
LV end-systolic volume (ESV) [1]: 46 ± 2 mL
LV fractional area of shortening (FAS) [1]: 26 ± 0.8%
Mean aortic pressure (mAoP) [1]: 77 ± 3 mmHg
PE/PA (ratio of peak mitral flow velocities) [1]: 1.7 ± 0.10
Stroke volume (SV) [1]: 18 ± 1.0 mL
Systemic vascular resistance (SVR) [1]: 4368 ± 248 dynes-sec-cm^−5
Cardiac output (CO) [2]: 1.47 ± 0.11 L/min
Deceleration time of early mitral inflow velocity (DCT) [2]: 109 ± 4 ms
Ei/Ai (ratio of mitral inflow time-velocity integrals) [2]: 2.03 ± 0.23
Heart rate (HR) [2]: 78 ± 2 beats/min
LV end-diastolic circumferential wall stress (EDWS) [2]: 47 ± 5 gm/cm^2
LV end-diastolic pressure (LVEDP) [2]: 12 ± 0.9 mmHg
LV end-diastolic volume (EDV) [2]: 63 ± 2 mL
LV end-systolic volume (ESV) [2]: 44 ± 2 mL
LV fractional area of shortening (FAS) [2]: 27 ± 1.3 %
Mean aortic pressure (mAoP) [2]: 77 ± 3 mmHg
PE/PA (ratio of peak mitral flow velocities) [2]: 1.8 ± 0.10
Stroke volume (SV) [2]: 19 ± 1.2 mL
Systemic vascular resistance (SVR) [2]: 4250 ± 327 dynes-sec-cm^−5
Cardiac output (CO) [3]: 1.53 ± 0.08 L/min
Deceleration time of early mitral inflow velocity (DCT) [3]: 113 ± 6 ms
Ei/Ai (ratio of mitral inflow time-velocity integrals) [3]: 2.40 ± 0.29
Heart rate (HR) [3]: 79 ± 3 beats/min
LV end-diastolic circumferential wall stress (EDWS) [3]: 47 ± 6 gm/cm^2
LV end-diastolic pressure (LVEDP) [3]: 12 ± 1.1 mmHg
LV end-diastolic volume (EDV) [3]: 63 ± 2 mL
LV end-systolic volume (ESV) [3]: 44 ± 2 mL
LV fractional area of shortening (FAS) [3]: 29 ± 0.9 %
Mean aortic pressure (mAoP) [3]: 79 ± 3 mmHg
PE/PA (ratio of peak mitral flow velocities) [3]: 1.9 ± 0.07
Stroke volume (SV) [3]: 19 ± 0.8 mL
Systemic vascular resistance (SVR) [3]: 4157 ± 212 dynes-sec-cm^−5
Cardiac output (CO) [4]: 1.63 ± 0.05 L/min
Deceleration time of early mitral inflow velocity (DCT) [4]: 113 ± 5 ms
Ei/Ai (ratio of mitral inflow time-velocity integrals) [4]: 2.51 ± 0.21
Heart rate (HR) [4]: 80 ± 3 beats/min
LV end-diastolic circumferential wall stress (EDWS) [4]: 44 ± 7 gm/cm^2
LV end-diastolic pressure (LVEDP) [4]: 11 ± 1.2 mmHg
LV end-diastolic volume (EDV) [4]: 63 ± 2 mL
LV end-systolic volume (ESV) [4]: 42 ± 2 mL
LV fractional area of shortening (FAS) [4]: 31 ± 1.5 %
Mean aortic pressure (mAoP) [4]: 79 ± 3 mmHg
Myocardial oxygen consumption (MVO2) [4]: 114 ± 14 μmols/min
PE/PA (ratio of peak mitral flow velocities) [4]: 2.1 ± 0.09
Stroke volume (SV) [4]: 21 ± 0.9 mL
Systemic vascular resistance (SVR) [4]: 3895 ± 168 dynes-sec-cm^−5
Cardiac output (CO) [5]: 1.64 ± 0.07 L/min
Deceleration time of early mitral inflow velocity (DCT) [5]: 118 ± 6 ms
Ei/Ai (ratio of mitral inflow time-velocity integrals) [5]: 2.68 ± 0.23
Heart rate (HR) [5]: 79 ± 4 beats/min
LV end-diastolic circumferential wall stress (EDWS) [5]: 43 ± 7 gm/cm^2
LV end-diastolic pressure (LVEDP) [5]: 11 ± 1.2 mmHg
LV end-diastolic volume (EDV) [5]: 62 ± 2 mL
LV end-systolic volume (ESV) [5]: 41 ± 2 mL
LV fractional area of shortening (FAS) [5]: 31 ± 1.4 %
Mean aortic pressure (mAoP) [5]: 77 ± 2 mmHg
PE/PA (ratio of peak mitral flow velocities) [5]: 2.2 ± 0.05
Stroke volume (SV) [5]: 21 ± 1.1 mL
Systemic vascular resistance (SVR) [5]: 3823 ± 221 dynes-sec-cm^−5
Cardiac output (CO) [6]: 1.69 ± 0.04 L/min
Deceleration time of early mitral inflow velocity (DCT) [6]: 118 ± 4 ms
Ei/Ai (ratio of mitral inflow time-velocity integrals) [6]: 2.77 ± 0.23
Heart rate (HR) [6]: 81 ± 4 beats/min
LV end-diastolic circumferential wall stress (EDWS) [6]: 41 ± 7 gm/cm^2
LV end-diastolic pressure (LVEDP) [6]: 10 ± 1.2 mmHg
LV end-diastolic volume (EDV) [6]: 62 ± 2 mL
LV end-systolic volume (ESV) [6]: 41 ± 2 mL
LV fractional area of shortening (FAS) [6]: 32 ± 1.1 %
Mean aortic pressure (mAoP) [6]: 76 ± 3 mmHg
Myocardial oxygen consumption (MVO2) [6]: 115 ± 12 μmols/min
PE/PA (ratio of peak mitral flow velocities) [6]: 2.2 ± 0.06
Slope of end-diastolic pressure-volume relation (EDPVR) [6]: 0.296 ± 0.018 mmHg/ml
Slope of end-systolic pressure volume relation (ESPVR) [6]: 2.43 ± 0.35 mmHg/ml
Stroke volume (SV) [6]: 21 ± 0.8 mL
Systemic vascular resistance (SVR) [6]: 3571 ± 113 dynes-sec-cm^−5
Ventricular or atrial arrhythmias [7]: did not evoke any ventricular or atrial arrhythmias
Effect on DCT [8]: increased
Effect on EDWS [8]: decreased significantly
Effect on Ei/Ai [8]: increased significantly
Effect on PE/PA [8]: increased significantly
Effect on HR [9]: no effect
Effect on mAoP [9]: no effect
Effect on EF (LVEF) (HF dogs n=6, iv 10 μg/kg/min for 6 h, vs baseline, listed as GP-531 tartrate salt): increase
Effect on slope of the EDPVR (HF dogs n=6, iv 10 μg/kg/min, 6 hours, not statistically significant): tended to decrease
LV systolic and diastolic function (HF dogs, iv 10 μg/kg/min for 6 hours): can improve both LV systolic and diastolic function

NC(=O)c1ncn(C2OC(CNCc3ccccc3)C(O)C2O)c1N [GP-531, 5-amino-1-β-D-(5-benzylamino-5-deoxy-1-β-D-ribofuranosyl)imidazole-4 carboxamide]
Time after initiating drug infusion at which improvements (EDV, ESV, EF, FAS) occurred (HF dogs n=6, iv 10 μg/kg/min): 1 to 3 h
Acute decompensation [7]: None of the dogs treated with GP-531 developed acute decompensation
Changes in MVO2 [7]: absence of any changes
Death [7]: none died
Effect on peak +dP/dt [7]: no significant effects
Effect on peak −dP/dt [7]: no significant effects
Effect on LVEDP (HF dogs n=6, iv 10 μg/kg/min for 6 h, time-dependent, significance at 5 hours): significantly decreased
Effect on CO [9]: significant increase
Effect on EDV [9]: modest but statistically significant effect on reducing
Effect on EF (LVEF) [9]: increased
Effect on ESV [9]: significantly decreased
Effect on FAS [9]: increased
Effect on SV [9]: significant increase
Effect on SVR [9]: decrease
Effect on slope of the ESPVR (HF dogs n=6, iv 10 μg/kg/min, 6 h vs baseline): significantly increased

Source: patent US9492468B2, “Methods and compositions for treatment of acute heart failure” (PERICOR THERAPEUTICS, INC., priority 2008, dated 2016)
